According to US20220324815A1, “2-PHENOXY-PYRIMIDINE DERIVATIVES AS HERBICIDAL COMPOUNDS” (SYNGENTA CROP PROTECTION AG, priority 2019, published 2022):

Assays:
Type in all cases: in vivo
Settings in all cases: 250 g/ha unless otherwise stated, evaluated after 13 days, five-point scale
[1] = system: Ipomoea hederacea (IPOHE); assay: Test 1 glasshouse herbicide test, post-emergence application (Table B1)
Method: (§1) Seeds of a variety of test species are sown in standard soil in pots (Lolium perenne (LOLPE), Solanum nigrum (SOLNI), Amaranthus retoflexus (AMARE), Setaria faberi (SETFA), Echinochloa crus-galli (ECHCG) and Ipomoea hederacea (IPOHE)). After cultivation for one day (pre-emergence) or after 8 days cultivation (post-emergence) under controlled conditions in a glasshouse (at 24/16° C., day/night; 14 hours light; 65% humidity), the plants are sprayed with an aqueous spray solution derived from the formulation of the technical active ingredient in acetone/water (50:50) solution containing 0.5% Tween 20 (polyoxyethelyene sorbitan monolaurate, CAS RN 9005-64-5). Compounds are applied at 250 g/ha unless otherwise stated. The test plants are then grown in a glasshouse under controlled conditions in a glasshouse (at 24/16° C., day/night; 14 hours light; 65% humidity) and watered twice daily. After 13 days for pre and post-emergence, the test is evaluated for the percentage damage caused to the plant. The biological activities (% phytotoxicity) are shown in Tables B1 and B2 below using a five-point scale (5=81 to 100%; 4=61 to 80%; 3=41 to 60%; 2=21 to 40%; 1=0 to 20%).

[2] = system: Amaranthus retoflexus (AMARE); assay: as above
Method: as §1

[3] = system: Echinochloa crus-galli (ECHCG); assay: as above
Method: as §1

Setaria faberi (SETFA) [4] = assay: as above
Method: as §1

[5] = system: Ipomoea hederacea (IPOHE); assay: Test 1 glasshouse herbicide test, pre-emergence application (Table B2)
Method: as §1

[6] = system: Amaranthus retoflexus (AMARE); assay: as above
Method: as §1

[7] = system: Echinochloa crus-galli (ECHCG); assay: as above
Method: as §1

Setaria faberi (SETFA) [8] = assay: as above
Method: as §1

Compound	% phytotoxicity IPOHE, post-emergence application [1]	% phytotoxicity AMARE, post-emergence application [2]	% phytotoxicity ECHCG, post-emergence application [3]	% phytotoxicity SETFA, post-emergence application (Setaria faberi (SETFA) [4])	% phytotoxicity IPOHE, pre-emergence application [5]	% phytotoxicity AMARE, pre-emergence application [6]	% phytotoxicity ECHCG, pre-emergence application [7]	% phytotoxicity SETFA, pre-emergence application (Setaria faberi (SETFA) [8])
C#CCSc1ccccc1Oc1ncc(Cl)cn1 [Compound A45]	1 (1=0 to 20%)	3 (3=41 to 60%)	3 (3=41 to 60%)	2 (2=21 to 40%)	1 (1=0 to 20%)	3 (3=41 to 60%)	3 (3=41 to 60%)	3 (3=41 to 60%)
C#CCS(=O)(=O)c1ccccc1Oc1ncc(Cl)cn1 [Compound A46]	1 (1=0 to 20%)	1 (1=0 to 20%)	1 (1=0 to 20%)	1 (1=0 to 20%)	1 (1=0 to 20%)	1 (1=0 to 20%)	1 (1=0 to 20%)	1 (1=0 to 20%)
C=CCS(=O)(=O)c1ccccc1Oc1ncc(Cl)cn1 [Compound A48]	1 (1=0 to 20%)	2 (2=21 to 40%)	1 (1=0 to 20%)	1 (1=0 to 20%)	1 (1=0 to 20%)	1 (1=0 to 20%)	1 (1=0 to 20%)	1 (1=0 to 20%)
CCCSc1ccccc1Oc1ncc(Cl)cn1 [Compound A49]	4 (4=61 to 80%)	4 (4=61 to 80%)	4 (4=61 to 80%)	4 (4=61 to 80%)	3 (3=41 to 60%)	5 (5=81 to 100%)	5 (5=81 to 100%)	5 (5=81 to 100%)
CCCS(=O)(=O)c1ccccc1Oc1ncc(Cl)cn1 [Compound A50]	2 (2=21 to 40%)	4 (4=61 to 80%)	1 (1=0 to 20%)	1 (1=0 to 20%)	2 (2=21 to 40%)	5 (5=81 to 100%)	4 (4=61 to 80%)	5 (5=81 to 100%)
O=S(=O)(CC1CC1)c1ccccc1Oc1ncc(Cl)cn1 [Compound A51]	1 (1=0 to 20%)	3 (3=41 to 60%)	1 (1=0 to 20%)	1 (1=0 to 20%)	1 (1=0 to 20%)	4 (4=61 to 80%)	1 (1=0 to 20%)	2 (2=21 to 40%)
CC(C)=CCSc1ccccc1Oc1ncc(Cl)cn1 [Compound A52]	1 (1=0 to 20%)	3 (3=41 to 60%)	4 (4=61 to 80%)	3 (3=41 to 60%)	1 (1=0 to 20%)	1 (1=0 to 20%)	2 (2=21 to 40%)	1 (1=0 to 20%)
CCCCCCSc1ccccc1Oc1ncc(Cl)cn1 [Compound A53]	1 (1=0 to 20%)	4 (4=61 to 80%)	1 (1=0 to 20%)	1 (1=0 to 20%)	1 (1=0 to 20%)	3 (3=41 to 60%)	2 (2=21 to 40%)	3 (3=41 to 60%)
FC(F)(F)CSc1ccccc1Oc1ncc(Cl)cn1 [Compound A55]	4 (4=61 to 80%)	5 (5=81 to 100%)	4 (4=61 to 80%)	4 (4=61 to 80%)	2 (2=21 to 40%)	5 (5=81 to 100%)	5 (5=81 to 100%)	5 (5=81 to 100%)
COCCCSc1ccccc1Oc1ncc(Cl)cn1 [Compound A56]	1 (1=0 to 20%)	2 (2=21 to 40%)	1 (1=0 to 20%)	1 (1=0 to 20%)	2 (2=21 to 40%)	2 (2=21 to 40%)	1 (1=0 to 20%)	2 (2=21 to 40%)
Clc1cnc(Oc2ccccc2SCCn2cc(Cl)cn2)nc1 [Compound A57]	2 (2=21 to 40%)	5 (5=81 to 100%)	4 (4=61 to 80%)	4 (4=61 to 80%)	1 (1=0 to 20%)	4 (4=61 to 80%)	3 (3=41 to 60%)	4 (4=61 to 80%)
FCCCSc1ccccc1Oc1ncc(Cl)cn1 [Compound A59]	2 (2=21 to 40%)	5 (5=81 to 100%)	4 (4=61 to 80%)	2 (2=21 to 40%)	2 (2=21 to 40%)	5 (5=81 to 100%)	5 (5=81 to 100%)	4 (4=61 to 80%)
FCCSc1ccccc1Oc1ncc(Cl)cn1 [Compound A60]	2 (2=21 to 40%)	3 (3=41 to 60%)	1 (1=0 to 20%)	1 (1=0 to 20%)	1 (1=0 to 20%)	4 (4=61 to 80%)	2 (2=21 to 40%)	3 (3=41 to 60%)
FC(F)CSc1ccccc1Oc1ncc(Cl)cn1 [Compound A61]	2 (2=21 to 40%)	5 (5=81 to 100%)	2 (2=21 to 40%)	2 (2=21 to 40%)	2 (2=21 to 40%)	5 (5=81 to 100%)	3 (3=41 to 60%)	4 (4=61 to 80%)
C=C(C)CSc1ccccc1Oc1ncc(Cl)cn1 [Compound A62]	1 (1=0 to 20%)	1 (1=0 to 20%)	4 (4=61 to 80%)	3 (3=41 to 60%)	1 (1=0 to 20%)	1 (1=0 to 20%)	3 (3=41 to 60%)	3 (3=41 to 60%)
CCC(CC)CSc1ccccc1Oc1ncc(Cl)cn1 [Compound A64]	2 (2=21 to 40%)	2 (2=21 to 40%)	1 (1=0 to 20%)	2 (2=21 to 40%)	1 (1=0 to 20%)	1 (1=0 to 20%)	1 (1=0 to 20%)	1 (1=0 to 20%)
Clc1cnc(Oc2ccccc2SCc2cccc(Cl)c2)nc1 [Compound A66]	2 (2=21 to 40%)	4 (4=61 to 80%)	4 (4=61 to 80%)	3 (3=41 to 60%)	1 (1=0 to 20%)	1 (1=0 to 20%)	2 (2=21 to 40%)	2 (2=21 to 40%)
